Where “and” joins values, the source holds several entries; their conditions need not be identical. Equal values may be shown once. Read-outs that look alike come from different tables or passages of the source.
Details: the molecule shown is the open-chain precursor, crosslinker bond, CH3CN/H2O 1:1, 0.1 mM, 25.0 °C

H-Ala-Cys-Tyr-Lys-Arg-Ser-Asp-Phe-Thr-Cys-Gly-Gly-Gly-Ser-NH2?
ring closure, yield after HPLC (bis-Pd aryl reagent 6b (2 equiv)/Tris pH 7.5): 85%
ring closure, yield after HPLC (bis-Pd aryl reagent 6c (2 equiv)/Tris pH 7.5): 70%
ring closure, yield after HPLC (bis-Pd aryl reagent 6e (2 equiv)/Tris pH 7.5): 100%
ring closure, yield after HPLC (bis-Pd aryl reagent 6d (2 equiv)/Tris pH 7.5): 84%
ring closure, yield after HPLC (bis-Pd aryl reagent (2 equiv, not named)/Tris pH 7.5): 79% and 92% and 94%

Reference: patent US20210206791
